Reference: ChEMBL document CHEMBL1201862, “PubChem BioAssay data set” (2004)
Calls of active or inactive are those of the source.

Tests used:
[1] = target: Glutathione-S-transferase (Schistosoma japonicum, UniProt Q26513); assay: biotin-GST/anti-GST TR-FRET signal inhibitors, dose response, artefact control for Vif-APOBEC3G degradation inhibitor project, biochemical (AID 1117362); format: functional
Nonstructural protein 1 = Nonstructural protein 1 (Influenza A virus, UniProt Q194T2); format: functional, Influenza A virus (A/California/07/2009(H1N1))
cells = format: functional, cell-based
Protein Tat = Protein Tat (Human immunodeficiency virus type 1 group M subtype B (isolate HXB2)(HIV-1), UniProt P04608); format: functional;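 further: tat binding to TAR RNA read out by fluorescence polarization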
[2] = target: T1, Nuclear receptor subfamily 0 group B member 1 (Homo sapiens, UniProt P51843); format: functional, cell-based;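 further: HEK293T cells transfected with SF-1 and DAX-1 plus StAR promoter luciferase reporter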
T1 sequence (P51843 whole entry): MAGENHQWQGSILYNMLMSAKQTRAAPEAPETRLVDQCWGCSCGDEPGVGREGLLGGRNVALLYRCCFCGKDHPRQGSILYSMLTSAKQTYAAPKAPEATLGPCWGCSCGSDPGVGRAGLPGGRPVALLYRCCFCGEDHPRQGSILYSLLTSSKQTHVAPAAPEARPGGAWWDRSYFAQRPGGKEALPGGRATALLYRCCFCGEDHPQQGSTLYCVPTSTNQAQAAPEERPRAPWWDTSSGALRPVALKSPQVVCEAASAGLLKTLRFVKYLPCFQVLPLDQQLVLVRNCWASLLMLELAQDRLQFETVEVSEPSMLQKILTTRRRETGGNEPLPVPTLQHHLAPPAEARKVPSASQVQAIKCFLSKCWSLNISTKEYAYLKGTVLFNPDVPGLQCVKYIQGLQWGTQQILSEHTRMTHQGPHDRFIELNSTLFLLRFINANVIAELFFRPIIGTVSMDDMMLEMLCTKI

[3] = target: T2, Mannose-6-phosphate isomerase (Homo sapiens, UniProt P34949); assay: human PMI inhibitors, high substrate, primary screen, biochemical, fluorescence intensity, high mannose 6-phosphate (AID 1220)
T2 sequence (P34949 whole entry): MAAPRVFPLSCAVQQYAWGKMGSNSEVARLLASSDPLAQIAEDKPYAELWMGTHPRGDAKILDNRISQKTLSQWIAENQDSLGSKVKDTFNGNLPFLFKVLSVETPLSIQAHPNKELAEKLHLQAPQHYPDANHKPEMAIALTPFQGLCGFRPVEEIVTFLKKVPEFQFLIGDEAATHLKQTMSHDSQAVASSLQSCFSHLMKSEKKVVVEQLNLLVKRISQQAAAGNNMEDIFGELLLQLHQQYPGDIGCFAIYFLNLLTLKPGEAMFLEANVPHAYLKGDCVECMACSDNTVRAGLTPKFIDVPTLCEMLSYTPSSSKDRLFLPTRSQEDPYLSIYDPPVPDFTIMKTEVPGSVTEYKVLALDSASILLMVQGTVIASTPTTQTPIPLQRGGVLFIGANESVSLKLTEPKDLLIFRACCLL

[4] = target: Solute carrier family 12 member 2/member 5 (Homo sapiens, UniProt P55011+Q9H2X9); assay: KCC2 and NKCC1 inhibition by rubidium flux, cell-based, NKCC1 counter-screen (AID 1734); format: functional, HEK293
D(1A) dopamine receptor = D(1A) dopamine receptor (Homo sapiens, UniProt P21728); assay: Counterscreening of D4 Antagonists against Dopamine 1 (Human), Confirmatory Assay.; format: functional
D(2) dopamine receptor = D(2) dopamine receptor (Homo sapiens, UniProt P14416); assay: Counterscreening of D4 Antagonists against Dopamine 2S (Human), Confirmatory Assay.; format: functional
D(3) dopamine receptor = D(3) dopamine receptor (Homo sapiens, UniProt P35462); assay: Counterscreening of D4 Antagonists against Dopamine 3 DRD3 (Human), Confirmatory Assay.; format: functional
D(1B) dopamine receptor = D(1B) dopamine receptor (Homo sapiens, UniProt P21918); assay: Counterscreening of D4 Antagonists against Dopamine 5 DRD5 (Human), Confirmatory Assay.; format: functional
[5] = target: Metabotropic glutamate receptor 7 (Homo sapiens, UniProt Q14831); assay: mGlu7 positive allosteric modulators, dose response, cell-based, calcium mobilization, Galpha15 (AID 743384); format: functional
Fibrinogen beta chain [6] = target: T3, Fibrinogen beta chain (Homo sapiens, UniProt P02675); assay: Fluorescence polarization-based biochemical high throughput dose response assay to identify inhibitors that disrupt the binding of a cyclic peptide (Tn6) to the fibrin proteolytic product D-Dimer and fragment E complex [DD(E )].
Fibrinogen beta chain [7] = target: T3, Fibrinogen beta chain; assay: Fluorescence polarization-based biochemical high throughput dose response assay to identify inhibitors that disrupt the binding of a cyclic peptide (Tn7) to the fibrin proteolytic product D-Dimer and fragment E complex [DD(E )].
[8] = Glucagon-like peptide 1 release potency, NCI-H716 cell line, dose-response, half-maximal inhibitory concentration (AID 1117344); format: functional, cell-based
Large T antigen = Large T antigen (Simian virus 40, UniProt P03070); format: functional, Betapolyomavirus macacae;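 further: Confirmatory-stage PubChem screen for compounds that inhibit SV40 T antigen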
[9] = half-maximal inhibitory concentration for glucagon-like peptide-1 release, STC-1 cell line, dose-response (AID 1117345); format: functional, cell-based
[10] = Dose-response inhibition of insulin secretion in a rat insulinoma line at 5 mM glucose (AID 1117331); format: functional, cell-based; settings: INS-1E
Genome polyprotein = Genome polyprotein (Hepatitis C virus, UniProt Q2Q167); assay: HCV core protein dimerization inhibitors, dose response, biochemical, TR-FRET (AID 2159); design: species or system Hepacivirus hominis;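 further: blocks dimerization of HCV core protein measured by TR-FRET between tagged core106 pairs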
[11] = target: T2, Mannose-6-phosphate isomerase; assay: inhibitors of human PMI, primary screen, biochemical, fluorescence intensity, coupled assay (AID 1209)
[12] = target: Protein-tyrosine kinase 2-beta (Homo sapiens, UniProt Q14289);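 further: potency of inhibitors of PYK2 kinase phosphorylation of poly-GT substrate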
Ephrin type-A receptor 4 = Ephrin type-A receptor 4 (Mus musculus, UniProt Q03137); assay: inhibitors of EphA4 binding to KYL peptide, primary screen, biochemical, colorimetric, mouse EphA4 (AID 689); format: functional
[13] = P. falciparum ATP4 D1247Y mutant growth inhibitors, dose response, NITD609-resistant line, SYBR Green, dry powder (AID 1159571); format: functional, cell-based;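 further: parasites synchronized at ring stage by sorbitol before testing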
[14] = Plasmodium falciparum Dd2 Sybr green parasite growth Measured in Cell-Based and Microorganism Combination System Using Plate Reader - 2153-01_Inhibitor_Dose_DryPowder_Activity_Set3.; format: functional
[15] = HepG2 cell cytotoxicity, dose response, cytotoxicity control, plate reader, dry powder samples (AID 1159569); format: functional, cell-based;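 further: inhibitor potency with signal falling toward the positive control level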
[16] = P. falciparum Dd2 growth inhibitors, dose response, SYBR Green, cherry-picked samples (AID 1159567); format: functional, cell-based
[17] = P. falciparum Dd2 growth inhibitors, dose response, SYBR Green, dry powder samples (AID 1159566); format: functional, cell-based;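 further: potency for growth inhibition with lower SYBR green DNA signal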
[18] = P. falciparum 3D7-ScDHODH growth inhibitors, dose response, SYBR Green, dry powder samples (AID 1159570); format: functional, cell-based;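 further: parasite growth measured after 72 hours of compound exposure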
[19] = A549 cell cytotoxicity, dose response, cytotoxicity control, plate reader, cherry-pick, antagonist series (AID 743412); format: functional, cell-based
[20] = target: T4, Oxysterols receptor LXR-beta (Homo sapiens, UniProt P55055); assay: LXR agonists, Gal4 luciferase reporter, dose response, counter-screen for ssDAF-12 agonist project, cell-based, luminescence, HEK293, S. stercoralis campaign (AID 720737); format: functional; settings: read-out: IC50 (the source's name)
T4 sequence (P55055 whole entry): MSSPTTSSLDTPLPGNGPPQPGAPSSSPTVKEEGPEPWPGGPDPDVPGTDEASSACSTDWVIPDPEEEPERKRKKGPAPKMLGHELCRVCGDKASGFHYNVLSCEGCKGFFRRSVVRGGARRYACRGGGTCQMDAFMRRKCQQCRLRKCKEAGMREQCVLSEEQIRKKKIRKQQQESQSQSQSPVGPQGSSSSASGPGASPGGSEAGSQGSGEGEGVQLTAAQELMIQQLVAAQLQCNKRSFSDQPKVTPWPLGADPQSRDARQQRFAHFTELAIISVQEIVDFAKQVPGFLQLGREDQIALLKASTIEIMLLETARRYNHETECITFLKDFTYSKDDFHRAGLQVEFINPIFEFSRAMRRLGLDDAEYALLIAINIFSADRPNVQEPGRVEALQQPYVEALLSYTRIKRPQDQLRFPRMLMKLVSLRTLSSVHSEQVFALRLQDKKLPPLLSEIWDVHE

[21] = Luminescence-based cell-based high throughput dose response assay to identify activators of the DAF-12 from the parasite S. stercoralis (ssDAF-12).; format: functional
Estrogen receptor beta [22] = target: T5, Estrogen receptor beta (Homo sapiens, UniProt Q92731);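 further: recombinant ER-beta bound to coactivator SRC1 peptide in presence of estradiol agonist; inhibitors block coactivator peptide binding and lower the FRET signal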
Estrogen receptor beta [23] = target: T5, Estrogen receptor beta; assay: ERβ–SRC-3 coactivator interaction inhibitors, confirmation, orthogonal assay, biochemical, ELISA, streptavidin-HRP readout (AID 1060)
[24] = target: Mitogen-activated protein kinase 10 (Homo sapiens, UniProt P53779); assay: Dose response biochemical screening assay for inhibitors of c-Jun N-Terminal Kinase 3 (JNK3). [Related pubchem assays: 746 ]
Caspase-6 = target: T6, Caspase-6 (Homo sapiens, UniProt P55212); assay: human caspase-6 inhibitors, dose response, biochemical, VEID-R110 fluorescence, cherry-pick (AID 720632)
T6 sequence (P55212 whole entry): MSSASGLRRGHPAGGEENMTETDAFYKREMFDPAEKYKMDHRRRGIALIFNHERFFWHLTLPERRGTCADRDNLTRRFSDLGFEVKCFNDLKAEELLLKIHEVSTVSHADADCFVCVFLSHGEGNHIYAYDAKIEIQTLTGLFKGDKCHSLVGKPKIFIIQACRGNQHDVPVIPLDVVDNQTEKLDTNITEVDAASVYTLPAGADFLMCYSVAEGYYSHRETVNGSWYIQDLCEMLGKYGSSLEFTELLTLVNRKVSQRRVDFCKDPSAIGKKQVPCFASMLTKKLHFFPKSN

Caspase-7 = target: T7, Caspase-7 (Homo sapiens, UniProt P55210); assay: human caspase-7 inhibitors, dose response, selectivity assay for caspase-6 inhibitor project, biochemical, DEVD-R110 fluorescence, cherry-pick (AID 743295)
T7 sequence (P55210 whole entry): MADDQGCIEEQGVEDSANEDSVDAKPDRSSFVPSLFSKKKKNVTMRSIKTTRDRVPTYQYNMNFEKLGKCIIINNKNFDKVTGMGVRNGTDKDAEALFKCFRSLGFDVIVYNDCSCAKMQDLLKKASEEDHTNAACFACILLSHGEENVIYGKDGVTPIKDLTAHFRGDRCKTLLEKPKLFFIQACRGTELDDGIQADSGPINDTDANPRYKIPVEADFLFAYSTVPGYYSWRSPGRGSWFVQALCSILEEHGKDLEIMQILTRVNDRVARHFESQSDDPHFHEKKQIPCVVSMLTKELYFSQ

Caspase-9 = Caspase-9 (Homo sapiens, UniProt P55211); assay: caspase-9 enzyme inhibition, dose response, selectivity assay for caspase-6 inhibitor project, biochemical, fluorescence, plate reader, cherry-picked samples (AID 743293)
[25] = target: Photoreceptor-specific nuclear receptor (Homo sapiens, UniProt Q9Y5X4); assay: NR2E3 inverse agonists, dose response, biochemical, TR-FRET (AID 463256); format: functional
[26] = target: Peroxisome proliferator-activated receptor gamma/Nuclear receptor corepressor 2 (Homo sapiens, UniProt P37231+Q9Y618); assay: Counterscreen for NR2E3 inverse agonists: TR-FRET-based biochemical high throughput dose response assay to identify inverse agonists of the interaction between peroxisome proliferator-activated receptor gamma (PPARg) and nuclear receptor co-repressor 2 (NCOR2).; format: functional
[27] = target: ADP-ribosylation factor GTPase-activating protein 1 (Rattus norvegicus, UniProt Q62848); assay: Fluorescence polarization-based biochemical high throughput dose response screening assay to identify inhibitors of ADP-ribosylation factor GTPase activating protein 1 (ARFGAP1).; format: functional
Chain of ADP-ribosylation factor GTPase-activating protein 1 (Q62848 whole entry): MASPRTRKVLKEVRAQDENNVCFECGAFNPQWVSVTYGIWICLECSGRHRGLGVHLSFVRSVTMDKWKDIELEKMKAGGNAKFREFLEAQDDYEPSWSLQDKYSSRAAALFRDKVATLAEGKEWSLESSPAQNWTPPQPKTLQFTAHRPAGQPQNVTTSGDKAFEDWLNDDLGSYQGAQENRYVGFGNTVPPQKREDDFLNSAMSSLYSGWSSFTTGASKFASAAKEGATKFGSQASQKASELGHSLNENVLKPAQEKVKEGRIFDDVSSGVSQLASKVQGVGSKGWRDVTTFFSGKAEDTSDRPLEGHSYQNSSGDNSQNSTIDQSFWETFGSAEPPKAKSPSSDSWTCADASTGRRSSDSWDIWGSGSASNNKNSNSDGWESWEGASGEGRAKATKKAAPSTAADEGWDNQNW

T3 sequence (P02675 whole entry, the tested form may be a part): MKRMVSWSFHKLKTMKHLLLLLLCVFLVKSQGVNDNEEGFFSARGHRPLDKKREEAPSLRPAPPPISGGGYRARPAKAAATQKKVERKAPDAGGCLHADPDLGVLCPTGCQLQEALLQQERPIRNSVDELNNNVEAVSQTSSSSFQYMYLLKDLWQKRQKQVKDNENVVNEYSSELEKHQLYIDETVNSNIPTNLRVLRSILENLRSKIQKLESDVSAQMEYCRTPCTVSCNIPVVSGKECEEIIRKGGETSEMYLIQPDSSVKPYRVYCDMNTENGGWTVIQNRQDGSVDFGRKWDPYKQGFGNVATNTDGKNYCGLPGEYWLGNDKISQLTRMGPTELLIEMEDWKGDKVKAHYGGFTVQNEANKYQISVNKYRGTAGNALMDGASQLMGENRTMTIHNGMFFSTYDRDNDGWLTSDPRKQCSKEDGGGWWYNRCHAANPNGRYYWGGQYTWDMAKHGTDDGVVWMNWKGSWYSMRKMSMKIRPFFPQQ
T5 sequence (Q92731 whole entry): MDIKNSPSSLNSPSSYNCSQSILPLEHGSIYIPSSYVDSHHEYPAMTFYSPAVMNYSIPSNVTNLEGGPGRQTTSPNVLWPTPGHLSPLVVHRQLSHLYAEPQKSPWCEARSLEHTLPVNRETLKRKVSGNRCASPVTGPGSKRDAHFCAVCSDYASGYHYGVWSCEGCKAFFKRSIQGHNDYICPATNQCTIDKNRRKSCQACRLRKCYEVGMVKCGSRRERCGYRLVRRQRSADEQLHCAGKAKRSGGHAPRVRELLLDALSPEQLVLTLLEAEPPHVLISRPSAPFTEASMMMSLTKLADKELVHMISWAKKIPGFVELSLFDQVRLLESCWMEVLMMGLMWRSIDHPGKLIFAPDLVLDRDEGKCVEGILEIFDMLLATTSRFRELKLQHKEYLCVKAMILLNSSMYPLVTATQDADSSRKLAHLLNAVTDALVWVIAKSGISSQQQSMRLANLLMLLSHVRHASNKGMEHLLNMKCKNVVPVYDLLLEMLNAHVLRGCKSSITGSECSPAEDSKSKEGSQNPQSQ
Chain of D(3) dopamine receptor (P35462 whole entry): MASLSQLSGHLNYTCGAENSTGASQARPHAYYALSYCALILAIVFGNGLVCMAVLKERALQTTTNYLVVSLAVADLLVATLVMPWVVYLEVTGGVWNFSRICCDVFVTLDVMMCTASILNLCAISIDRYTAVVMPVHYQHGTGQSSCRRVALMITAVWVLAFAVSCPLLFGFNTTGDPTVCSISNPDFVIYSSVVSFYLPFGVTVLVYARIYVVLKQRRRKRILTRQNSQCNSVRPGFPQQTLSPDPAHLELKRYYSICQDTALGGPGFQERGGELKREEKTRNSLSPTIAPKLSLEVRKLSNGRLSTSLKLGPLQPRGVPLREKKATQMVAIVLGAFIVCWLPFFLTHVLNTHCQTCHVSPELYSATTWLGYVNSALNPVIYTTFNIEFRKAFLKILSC
Chain of Protein-tyrosine kinase 2-beta (Q14289 whole entry): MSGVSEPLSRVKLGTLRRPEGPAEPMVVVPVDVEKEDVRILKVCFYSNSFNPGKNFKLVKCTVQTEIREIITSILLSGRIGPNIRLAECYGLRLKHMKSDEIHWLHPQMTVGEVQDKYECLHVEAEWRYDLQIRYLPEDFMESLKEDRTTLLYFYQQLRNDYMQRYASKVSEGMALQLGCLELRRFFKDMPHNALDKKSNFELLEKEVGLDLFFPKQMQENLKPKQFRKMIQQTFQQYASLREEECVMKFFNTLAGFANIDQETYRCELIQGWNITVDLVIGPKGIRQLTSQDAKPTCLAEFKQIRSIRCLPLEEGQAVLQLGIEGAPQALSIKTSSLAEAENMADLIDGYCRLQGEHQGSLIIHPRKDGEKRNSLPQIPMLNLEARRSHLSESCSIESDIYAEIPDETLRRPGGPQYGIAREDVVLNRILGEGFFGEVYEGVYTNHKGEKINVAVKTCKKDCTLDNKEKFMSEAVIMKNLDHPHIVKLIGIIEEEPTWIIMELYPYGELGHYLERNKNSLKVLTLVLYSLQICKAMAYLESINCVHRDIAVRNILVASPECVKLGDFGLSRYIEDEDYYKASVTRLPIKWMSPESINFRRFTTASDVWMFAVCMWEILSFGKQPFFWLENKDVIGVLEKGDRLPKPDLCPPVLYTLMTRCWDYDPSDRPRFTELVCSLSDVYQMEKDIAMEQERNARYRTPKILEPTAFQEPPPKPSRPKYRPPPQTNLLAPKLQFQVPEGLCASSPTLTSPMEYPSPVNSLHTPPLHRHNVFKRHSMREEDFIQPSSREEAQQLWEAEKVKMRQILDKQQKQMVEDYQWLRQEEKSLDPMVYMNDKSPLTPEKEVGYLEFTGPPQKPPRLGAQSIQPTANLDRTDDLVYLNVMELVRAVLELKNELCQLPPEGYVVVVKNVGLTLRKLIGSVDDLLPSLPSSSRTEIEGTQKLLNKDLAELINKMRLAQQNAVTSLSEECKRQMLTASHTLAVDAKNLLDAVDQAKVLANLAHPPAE
Chain of Nonstructural protein 1 (Q194T2 whole entry): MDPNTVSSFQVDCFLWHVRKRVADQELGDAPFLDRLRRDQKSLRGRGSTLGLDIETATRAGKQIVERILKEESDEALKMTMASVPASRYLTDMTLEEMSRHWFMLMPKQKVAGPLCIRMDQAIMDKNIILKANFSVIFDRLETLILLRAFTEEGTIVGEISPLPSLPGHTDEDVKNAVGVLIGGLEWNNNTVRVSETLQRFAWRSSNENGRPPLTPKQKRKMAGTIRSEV
Chain of D(1A) dopamine receptor (P21728 whole entry): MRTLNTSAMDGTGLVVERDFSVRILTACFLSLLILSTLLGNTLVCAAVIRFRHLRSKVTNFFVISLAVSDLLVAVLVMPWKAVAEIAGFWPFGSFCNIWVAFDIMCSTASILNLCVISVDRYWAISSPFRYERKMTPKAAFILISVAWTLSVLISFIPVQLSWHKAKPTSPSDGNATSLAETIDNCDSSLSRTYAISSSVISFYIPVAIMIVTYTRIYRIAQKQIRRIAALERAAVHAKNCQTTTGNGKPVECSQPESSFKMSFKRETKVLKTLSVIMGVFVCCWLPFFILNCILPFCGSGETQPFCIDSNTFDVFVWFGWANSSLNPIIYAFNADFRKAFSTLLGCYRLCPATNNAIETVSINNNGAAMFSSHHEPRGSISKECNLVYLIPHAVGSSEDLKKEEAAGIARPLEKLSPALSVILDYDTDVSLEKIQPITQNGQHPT
Chain of D(1B) dopamine receptor (P21918 whole entry): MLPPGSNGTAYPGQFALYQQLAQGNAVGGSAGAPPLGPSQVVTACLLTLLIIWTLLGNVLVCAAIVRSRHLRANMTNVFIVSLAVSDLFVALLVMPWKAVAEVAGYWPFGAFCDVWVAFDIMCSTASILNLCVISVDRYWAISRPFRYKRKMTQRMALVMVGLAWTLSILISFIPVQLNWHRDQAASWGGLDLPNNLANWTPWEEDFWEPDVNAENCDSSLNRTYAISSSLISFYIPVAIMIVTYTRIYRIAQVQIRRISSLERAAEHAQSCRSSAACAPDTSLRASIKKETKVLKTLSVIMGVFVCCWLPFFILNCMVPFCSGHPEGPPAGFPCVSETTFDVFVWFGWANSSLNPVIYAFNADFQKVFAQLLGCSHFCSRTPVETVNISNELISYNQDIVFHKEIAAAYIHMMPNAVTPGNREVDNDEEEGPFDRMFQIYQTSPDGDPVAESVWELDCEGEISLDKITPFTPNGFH
Chain of Protein Tat (P04608 whole entry): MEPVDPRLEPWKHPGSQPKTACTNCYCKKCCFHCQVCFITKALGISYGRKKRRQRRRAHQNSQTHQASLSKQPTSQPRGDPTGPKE
Chain of Genome polyprotein (Q2Q167 whole entry): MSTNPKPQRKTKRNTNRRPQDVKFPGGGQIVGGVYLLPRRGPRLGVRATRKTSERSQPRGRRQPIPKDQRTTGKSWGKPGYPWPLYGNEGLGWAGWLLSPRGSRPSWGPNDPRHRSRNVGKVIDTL
Chain of Photoreceptor-specific nuclear receptor (Q9Y5X4 whole entry): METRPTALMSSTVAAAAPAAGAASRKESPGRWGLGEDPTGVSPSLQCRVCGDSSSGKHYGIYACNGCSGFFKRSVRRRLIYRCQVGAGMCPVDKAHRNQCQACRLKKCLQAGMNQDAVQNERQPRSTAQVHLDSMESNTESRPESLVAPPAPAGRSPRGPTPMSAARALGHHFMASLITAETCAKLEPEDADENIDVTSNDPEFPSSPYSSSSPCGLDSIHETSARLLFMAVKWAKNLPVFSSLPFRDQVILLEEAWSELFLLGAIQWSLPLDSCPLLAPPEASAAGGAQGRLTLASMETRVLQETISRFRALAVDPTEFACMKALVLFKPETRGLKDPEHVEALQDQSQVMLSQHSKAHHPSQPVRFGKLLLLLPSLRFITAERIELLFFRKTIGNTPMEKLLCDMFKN
Chain of Glutathione-S-transferase (Q26513 whole entry): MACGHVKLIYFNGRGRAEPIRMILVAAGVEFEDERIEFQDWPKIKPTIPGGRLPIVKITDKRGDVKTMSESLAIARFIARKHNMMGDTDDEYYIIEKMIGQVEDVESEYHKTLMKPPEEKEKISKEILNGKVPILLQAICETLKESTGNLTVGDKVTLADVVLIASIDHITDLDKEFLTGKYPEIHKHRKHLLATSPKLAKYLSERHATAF

CCCn1cnc2cc(NCc3ccccn3)ccc21
IC50 [1]: > 100 µM (active) | IC50 (Nonstructural protein 1): > 100 µM (active) | IC50 (cells): > 67.5 µM (inactive) | IC50 (Protein Tat): > 100 µM (active) | IC50 [2]: > 67.5 µM (inactive)

C=CCn1c(SCC(=O)N2N=C(c3ccco3)CC2c2ccco2)nnc1-c1ccncc1 (stereo not given)
IC50 [3]: > 50 µM (not active)

O=C(Cn1cnc2c(nnn2Cc2ccc(F)cc2)c1=O)N1CCCc2ccccc21
IC50 [4]: 1.3 µM (active)

Clc1ccc(CN2CCO[C@H](CCc3ccccc3)C2)cc1
IC50 (D(1A) dopamine receptor): 20 µM (inactive) | IC50 (D(2) dopamine receptor): 20 µM (inactive) | IC50 (D(3) dopamine receptor): 20 µM (inactive) | IC50 (D(1B) dopamine receptor): 20 µM (inactive)

CC(=O)Nc1ccc(SCC(=O)c2cc(C)n(CCc3cccs3)c2C)cc1
EC50 [5]: 2 µM (active)

O=C(CSc1nnc(SCc2cccc3ccccc23)s1)Nc1ccc(S(=O)(=O)Nc2nccs2)cc1
IC50 (Fibrinogen beta chain [6]): 15.6 µM (inactive) | IC50 (Fibrinogen beta chain [7]): > 83.3 µM (inactive)

Oc1ccc(O)cc1 [HYDROQUINONE]
IC50 [8]: > 40 µM (inactive) | IC50 (Large T antigen): 7.76 µM (active) | IC50 [9]: 1.01 µM (active) | IC50 [10]: > 33.3 µM (inactive)

CCOc1ccc(S(=O)(=O)N(CC(=O)N/N=C/c2ccc(-c3ccc([N+](=O)[O-])cc3)o2)c2ccccc2)cc1
IC50 (Genome polyprotein): > 49.8 µM (not active) | IC50 [11]: 36.4 µM (active) | IC50 [12]: 15.8 µM (not active) | IC50 (Ephrin type-A receptor 4): 45.6 µM (active)

CCCNC(=O)N1[C@H](C#N)[C@H](c2ccc(C#Cc3ccc(F)cc3)cc2)[C@H]1CO
AC50 [13]: 0.0156 µM (active) | AC50 [14]: 0.00982 µM (active) | AC50 [15]: 22.3 µM (active) | AC50 [16]: < 0.3 µM (active) | AC50 [17]: 0.016 µM (active) | AC50 [18]: 7.89 µM (active) | AC50 [19]: 24.7 µM (active)

C=CCc1ccc(OCCCCOc2ccc(C(=O)O)cc2)c(OC)c1
EC50 [20]: > 67.5 µM (inactive) | IC50 [21]: > 67.5 µM (inactive)

Cc1ccc(-c2nnc(CSc3nc4cc5c(cc4cc3C)OCO5)o2)cc1
IC50 (Estrogen receptor beta [22]): > 50 µM (not active) | IC50 (Estrogen receptor beta [23]): 0.0359 µM (not active)

N#Cc1c(N)nc2c(c1-c1ccco1)CCCCC2
IC50 [24]: > 93.1 µM (not active)

O=C(C[C@@H]1C[C@H]2c3cc(NC(=O)NC4CCCCC4)ccc3O[C@H]2[C@H](CO)O1)NCc1ccccn1
AC50 (Caspase-6): 7.79 µM (active) | AC50 (Caspase-7): 29.7 µM (active) | AC50 (Caspase-9): 53.5 µM (active)

Cc1c(C(=O)Nc2ccc(-n3cnnn3)cc2)oc2ccccc12
IC50 [25]: 8.46 µM (active) | IC50 [26]: 7.48 µM (active) | IC50 [27]: 78.5 µM (inactive)
